Experimental findings from US4248865A, “Novel aminoglycoside derivatives” (Shionogi & Co., Ltd., priority 1978, dated 1981) are described below.

In brackets after ≈: the same amount, converted by molar mass. A value given as a limit tells only on which side of the number the result lay.

In assay [1] the test system is Pseudomonas aeruginosa PP-6. Briefly: MIC by agar dilution method, Pseudomonas aeruginosa PP-6. Conditions: PP6, read-out: Minimum Inhibitory Concentration (MIC). In general terms: Agar dilution tests growth on a series of plates holding different concentrations.
Protocol: (§1) MIC was determined by the following agar dilution method.
(§2) One loopful of a strain of bacteria to be tested on agar slant was inoculated into a medium for growth of inoculum (Trypto Soy Broth; Eiken Chemical Co.) and incubated at 37° C. overnight.
(§3) A sample solution of aminoglycoside derivative was subjected to serial two-fold dilutions with sterile water. This diluted sample solutions were distributed to the Modified Mueller Hinton Agar medium (Nissui-seiyaku Co.), mixed gently and allowed to solidify.
(§4) One loopful of the bacterial suspension prepared in (1) was placed on the surface of the medium prepared in (2) containing the aminoglycoside derivative in various concentrations at 10^6 CFU/ml inoculum size.
Assay [2] concerns Klebsiella pneumoniae K1-168. Description: MIC by agar dilution method, Klebsiella pneumoniae K1-168. Conditions: K1168, read-out: Minimum Inhibitory Concentration (MIC).
Protocol: as §1, §2, §3, §4
Assay [3] deals with Escherichia coli W-677/JR 762. Description: MIC by agar dilution method, Escherichia coli W-677/JR 762. Conditions: W677/JR762, read-out: Minimum Inhibitory Concentration (MIC).
Protocol: as §1, §2, §3, §4

With `NC[C@H]1O[C@H](O[C@H]2[C@H](O)[C@@H](O[C@H]3O[C@H](CO)[C@@H](O)[C@H](N)[C@H]3O)[C@H](NC3=NCCC[C@@H]3O)C[C@@H]2N)[C@H](N)C[C@@H]1O` [[B], 1N-[(S)(-)-3-hydroxy-3,4,5,6-tetrahydropyridin-2-yl]tobramycin], the MIC in assay [1] came to 6.2 µg/mL (≈ 11 µM); in assay [2], 3.1 µg/mL (≈ 5.49 µM); in assay [3], 12.5 µg/mL (≈ 22.1 µM).
The like results for `NC[C@H]1O[C@H](O[C@H]2[C@H](O)[C@@H](O[C@H]3O[C@H](CO)[C@@H](O)[C@H](N)[C@H]3O)[C@H](N)C[C@@H]2N)[C@H](N)C[C@@H]1O` [TOB, tobramycin, reference compound] were, in that order, over 100 µg/mL, 100 µg/mL (≈ 214 µM) and 50 µg/mL (≈ 107 µM).
The like results for `NC[C@H]1O[C@H](O[C@H]2[C@H](O)[C@@H](O[C@H]3O[C@H](CO)[C@@H](O)[C@H](N)[C@H]3O)[C@H](NC3=NCC[C@@H]3O)C[C@@H]2N)[C@H](N)C[C@@H]1O` [[A], 1N-[(S)(-)-3-hydroxy-1-pyrrolin-2-yl]tobramycin] were, in that order, 3.1 µg/mL (≈ 5.63 µM), 3.1 µg/mL (≈ 5.63 µM) and 12.5 µg/mL (≈ 22.7 µM).
